{"source": "patent US12594344B2", "about": "“Production of exosomes and uses thereof” (CHINA MEDICAL UNIVERSITY, priority 2021, dated 2026)", "key": {"[1]": {"system": "MDA-MB-231 cells", "test": "Cytotoxicity of exosomes loaded with miRNA and DOX", "type": "cell-based", "conditions": "MDA-MB-231, after 24 h and 48 h", "experimental": "The cell cultured on 96-well with Exo/CARExo for the collection of different time-points, the culture medium was collected and washed with PBS solution to remove any residual medium. Tetrazolium dye MTT (3-(4,5-dimethylthiazol-2-yl)-2,5-diphenyltetrazolium bromide) (Sigma-Aldrich) was mixed fresh medium with ratio of 1:9 and performed to assess for cell viability, which worked by acting on the respiratory chain. After 3 h of reaction, the MTT agent was removed and DMSO was added and left aside for 20 min to dissolve the formazan crystals and redistributed evenly into a 96-well. Absorbance was quantified by measuring at a wavelength of 570 nm to assess for cell viability.\nThen, the present invention further increased the test group to six groups: Ctl, Drug, miR, CARExo, CARExo-Drug and CARExo-miR-Drug, to distinguish the validation of cancer cell killing efficacy (FIG. 10). […] Whereas CARExo or Drug only the effect was about 50%. It could be seen that the cocktail of exosomes can effectively and quickly kill cancer cells in the first time."}, "[2]": {"target": "T1, YAP protein (Homo sapiens, UniProt P46937)", "T1 construct": "endogenous in cells; host or cells: HEK293T", "T1 sequence (P46937 whole entry)": "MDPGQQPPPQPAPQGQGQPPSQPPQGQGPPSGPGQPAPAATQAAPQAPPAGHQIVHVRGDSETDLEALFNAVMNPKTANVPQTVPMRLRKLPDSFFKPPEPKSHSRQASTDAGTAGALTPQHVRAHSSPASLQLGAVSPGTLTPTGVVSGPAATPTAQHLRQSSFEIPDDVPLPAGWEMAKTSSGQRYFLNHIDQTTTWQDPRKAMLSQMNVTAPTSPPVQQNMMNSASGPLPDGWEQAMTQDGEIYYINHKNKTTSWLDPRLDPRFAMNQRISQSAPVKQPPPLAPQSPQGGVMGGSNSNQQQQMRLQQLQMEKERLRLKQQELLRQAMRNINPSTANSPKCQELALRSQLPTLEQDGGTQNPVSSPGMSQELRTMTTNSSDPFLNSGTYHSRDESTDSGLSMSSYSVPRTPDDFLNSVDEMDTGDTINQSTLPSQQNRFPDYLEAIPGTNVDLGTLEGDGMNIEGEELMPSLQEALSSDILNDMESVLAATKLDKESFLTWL", "test": "YAP inhibitor treatment of HEK293T-laden auxetic scaffold under cyclic tensile stimulation", "type": "cell-based", "description": "In the present invention, hydrogels with an auxetic structure were fabricated through a template moulding process. Considering that the cell-laden hydrogels with an auxetic structure should be compatible with a tensile bioreactor, three components were used to produce the construct: a Pluronic F-127 solution, GelMa, and cell-laden FGelMa. A positive mould was designed and printed using the BioX bioprinter (Cellink, Sweden) with the Pluronic F-127 (Sigma-Aldrich) solution at a concentration of 30 wt % in distilled water. […] For the mould printing, the stereolithography (STL) model was designed and developed using SolidWorks. The STL file was then converted into a g-code file, which was used to determine the movements and printing paths of the bioprinter, using sliver software. After housing the fugitive ink in a syringe barrel equipped with a luer-locked nozzle with an inner diameter of 150 μm, the fugitive ink was deposited on a glass slide by applying a pneumatic pressure at 170 kPa to form a filament with diameter of approximately 250 μm, using a syringe moving speed of 25 mm/s. The fugitive mould of the auxetic construct was fabricated layer-by-layer (150 μm per layer) until the final thickness of the construct reached 2.1 mm. […]"}}}
{"compound": "COc1cccc2c1C(=O)c1c(O)c3c(c(O)c1C2=O)C[C@@](O)(C(=O)CO)C[C@@H]3O[C@H]1C[C@H](N)[C@H](O)[C@H](C)O1", "note": "[Drug, doxorubicin]", "values": [{"measurement": "cell killing effect", "setting": "[1]", "result": "about 50%"}]}
{"compound": "Verteporfin", "values": [{"measurement": "cell morphology", "setting": "[2]", "result": "could not self-assemble to form three-dimensional spheroids"}, {"measurement": "secretion of exosomes relative to the cyclic tensile stimulation group", "setting": "[2]", "result": 5, "unit": "%"}]}
